This note sets out measurements from US8354419B2, “Benzimidazole analogues for the treatment or prevention of flavivirus infections” (Vertex Pharmaceuticals Incorporated, priority 2009, dated 2013).

This assay relates to HCV (Ib) RNA replication. As to the kind of experiment: Cell-based luciferase reporter HCV (1b) RNA replication assay (replicon cell lines Huh-7 5.2 and ET). Also noted: species or system Hepatitis C virus. Particulars: Hepatitis C virus, Huh-7, 96 h, HCV 1b genotype replicon, luciferase readout, 4 days incubation; read-out: EC50_1b. In outline: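 Huh-7-derived 5.2 or ET replicon cells carrying a firefly luciferase reporter were seeded at ~3000 cells/well in medium without G418 or phenol red. Compound was added after 3-4 h, followed by 4 days at 37 °C. Luciferase readout was used, with IC50 fitted by nonlinear regression from eleven concentrations in duplicate.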

As to `COC(=O)N[C@H](C(=O)N1CCC[C@H]1c1nc2cc(-c3ccsc3-c3ccc4[nH]c([C@@H]5CCCN5C(=O)[C@@H](NC(=O)OC)C(C)C)nc4c3)ccc2[nH]1)C(C)C` [Compound 133], the EC50 is ≤ 5 nM.
Regarding `CC(C)(C)CCN1CCC[C@H]1c1nc2cc(C#Cc3ccc4[nH]c([C@@H]5CCCN5CCC(C)(C)C)nc4c3)ccc2[nH]1` [Compound 134], the EC50 is 5 to 5000 nM.
Then `CC(C)CCN1CCC[C@H]1c1nc2cc(C#Cc3ccc4[nH]c([C@@H]5CCCN5CCC(C)C)nc4c3)ccc2[nH]1` [Compound 135], with 5 to 5000 nM.
Then `C(#Cc1ccc2[nH]c([C@@H]3CCCN3CC3CCCCC3)nc2c1)c1ccc2[nH]c([C@@H]3CCCN3CC3CCCCC3)nc2c1` [Compound 136], with 5 to 5000 nM.
Then `CCC(C)CN1CCC[C@H]1c1nc2cc(C#Cc3ccc4[nH]c([C@@H]5CCCN5CC(C)CC)nc4c3)ccc2[nH]1` (some centres unmarked) [Compound 137], with 5 to 5000 nM.
Regarding `C(#Cc1ccc2[nH]c([C@@H]3CCCN3CCC3CCOCC3)nc2c1)c1ccc2[nH]c([C@@H]3CCCN3CCC3CCOCC3)nc2c1` [Compound 138], the EC50 lay in the range of 5 to 5000 nM.
As for `C(#Cc1ccc2[nH]c([C@@H]3CCCN3CC3CCCC3)nc2c1)c1ccc2[nH]c([C@@H]3CCCN3CC3CCCC3)nc2c1` [Compound 139], the EC50 is 5 to 5000 nM.
Then `CCC(CC)CN1CCC[C@H]1c1nc2cc(C#Cc3ccc4[nH]c([C@@H]5CCCN5CC(CC)CC)nc4c3)ccc2[nH]1` [Compound 140], with 5 to 5000 nM; and `COC(=O)N[C@H](C(=O)N1CCC[C@H]1c1nc2cc(-c3ccc(-c4ccc5nc([C@@H]6CCCN6C(=O)[C@@H](NC(=O)OC)C(C)C)[nH]c5c4)cc3[N+](=O)[O-])ccc2[nH]1)C(C)C` [Compound 141], with ≤ 5 nM.
On to `COC(=O)N[C@H](CC1CCC1)C(=O)N1CCC[C@H]1c1nc2ccc(C#Cc3ccc4nc([C@@H]5CCCN5C(=O)[C@@H](CC5CCC5)NC(=O)OC)[nH]c4c3)cc2[nH]1` [Compound 142], for which the EC50 was ≤ 5 nM.
Then `COC(=O)N[C@H](C(=O)N1CCC[C@H]1c1nc2cc(-c3c(F)cc(-c4ccc5nc([C@@H]6CCCN6C(=O)[C@@H](NC(=O)OC)C(C)C)[nH]c5c4)cc3F)ccc2[nH]1)C(C)C` [Compound 143], with ≤ 5 nM.
For `COC(=O)N[C@H](C(=O)N1CCC[C@H]1c1nc2cc(C)c(-c3ccc(-c4cc5[nH]c([C@@H]6CCCN6C(=O)[C@@H](NC(=O)OC)C(C)C)nc5cc4C)cc3)cc2[nH]1)C(C)C` [Compound 144] the value was ≤ 5 nM; for `COC(=O)N[C@H](C(=O)N1CC[C@H]1c1nc2ccc(-c3ccc(-c4ccc5nc([C@@H]6CCN6C(=O)[C@@H](NC(=O)OC)C(C)C)[nH]c5c4)cc3)cc2[nH]1)C(C)C` [Compound 145], ≤ 5 nM; for `COC(=O)N[C@H](C(=O)N1CCC[C@H]1c1nc2cc(-c3ccc(-c4ccc5nc([C@@H]6CCCN6C(=O)[C@@H](NC(=O)OC)C(C)C)[nH]c5c4)c4c3OCO4)ccc2[nH]1)C(C)C` [Compound 146], ≤ 5 nM.
Then `COC(=O)N[C@H](C(=O)N1CCC[C@H]1c1nc2cc(C#Cc3ccc(-c4ccc5[nH]c([C@@H]6CCCN6C(=O)[C@@H](NC(=O)OC)C(C)C)nc5c4)cc3)ccc2[nH]1)C(C)C` [Compound 147], with ≤ 5 nM.
For `COC(=O)N[C@H](C(=O)N1CCCC[C@H]1c1nc2ccc(-c3ccc(-c4ccc5nc([C@@H]6CCCCN6C(=O)[C@@H](NC(=O)OC)C(C)C)[nH]c5c4)cc3)cc2[nH]1)C(C)C` [Compound 148], the EC50 is ≤ 5 nM.
Then `COC(=O)N[C@H](C(=O)N1CCC[C@H]1c1nc2cc(-c3c(C)cc(-c4ccc5nc([C@@H]6CCCN6C(=O)[C@@H](NC(=O)OC)C(C)C)[nH]c5c4)cc3C)ccc2[nH]1)C(C)C` [Compound 149], with ≤ 5 nM; and `COC(=O)N[C@H](C(=O)N1CCC[C@H]1c1nc2cc(-c3ccc(-c4ccc5[nH]c([C@@H]6CCCN6C(=O)[C@@H](NC(=O)OC)C(C)C)nc5c4)c(S(C)(=O)=O)c3)ccc2[nH]1)C(C)C` [Compound 150], with ≤ 5 nM; and `COC(=O)NCCN1CCC[C@H]1c1nc2cc(C#Cc3ccc4[nH]c([C@@H]5CCCN5CCNC(=O)OC)nc4c3)ccc2[nH]1` [Compound 151], with 5 to 5000 nM.
Turning to `Cc1nc(C)c(C(=O)N2CCC[C@H]2c2nc3cc(C#Cc4ccc5nc([C@@H]6CCCN6C(=O)c6sc(C)nc6C)[nH]c5c4)ccc3[nH]2)s1` [Compound 152], the EC50 lay in the range of 5 to 5000 nM.
For `CCCC/C(=C/c1ccc2[nH]c([C@@H]3CCCN3C(=O)[C@@H](NC(=O)OC)C(C)C)nc2c1)c1ccc2[nH]c([C@@H]3CCCN3C(=O)[C@@H](NC(=O)OC)C(C)C)nc2c1` [Compound 153] the value was ≤ 5 nM; for `COC(=O)N[C@H](C(=O)N1CCC[C@H]1c1nc2cc(-c3cc(C#N)c(-c4ccc5[nH]c([C@@H]6CCCN6C(=O)[C@@H](NC(=O)OC)C(C)C)nc5c4)cc3Cl)ccc2[nH]1)C(C)C` [Compound 154], ≤ 5 nM.
Then `COC(=O)N[C@H](C(=O)N1CCC[C@H]1c1nc2cc(-c3cc(C)c(-c4ccc5[nH]c([C@@H]6CCCN6C(=O)[C@@H](NC(=O)OC)C(C)C)nc5c4)s3)ccc2[nH]1)C(C)C` [Compound 155], with ≤ 5 nM; and `Cc1cc(-c2ccc3[nH]c([C@@H]4CCCN4C(=O)[C@@H](NC(=O)O[C@H]4CCOC4)C(C)C)nc3c2)sc1-c1ccc2[nH]c([C@@H]3CCCN3C(=O)[C@@H](NC(=O)O[C@H]3CCOC3)C(C)C)nc2c1` [Compound 156], with 5 to 5000 nM; and `CCCCc1cc(-c2ccc3[nH]c([C@@H]4CCCN4C(=O)[C@@H](NC(=O)OC)C(C)C)nc3c2)sc1-c1ccc2[nH]c([C@@H]3CCCN3C(=O)[C@@H](NC(=O)OC)C(C)C)nc2c1` [Compound 157], with ≤ 5 nM.
As for `CCCCc1cc(-c2ccc3[nH]c([C@@H]4CCCN4C(=O)[C@@H](NC(=O)O[C@H]4CCOC4)C(C)C)nc3c2)sc1-c1ccc2[nH]c([C@@H]3CCCN3C(=O)[C@@H](NC(=O)O[C@H]3CCOC3)C(C)C)nc2c1` [Compound 158], the EC50 is ≤ 5 nM.
On to `COC(=O)N[C@H](C(=O)N1CCC[C@H]1c1nc2cc(-c3csc(-c4ccc5[nH]c([C@@H]6CCCN6C(=O)[C@@H](NC(=O)OC)C(C)C)nc5c4)n3)ccc2[nH]1)C(C)C` [Compound 159], for which the EC50 was ≤ 5 nM.
With `CC(C)[C@H](NC(=O)O[C@H]1CCOC1)C(=O)N1CCC[C@H]1c1nc2cc(-c3csc(-c4ccc5[nH]c([C@@H]6CCCN6C(=O)[C@@H](NC(=O)O[C@H]6CCOC6)C(C)C)nc5c4)n3)ccc2[nH]1` [Compound 160], the EC50 is 5 to 5000 nM.
`COC(=O)N[C@H](C(=O)N1CCC[C@H]1c1nc2cc(-c3ccc(-c4ccc5nc([C@@H]6CCCN6C(=O)[C@@H](NC(=O)OC)C(C)C)[nH]c5c4)cc3CO)ccc2[nH]1)C(C)C` [Compound 161]: the EC50 was ≤ 5 nM.
Then `COC(=O)N[C@@H](C(=O)N1CCC[C@H]1c1nc2cc(-c3ccc(-c4ccc5[nH]c([C@@H]6CCCN6C(=O)[C@H](NC(=O)OC)C(C)C)nc5c4)nn3)ccc2[nH]1)C(C)C` [Compound 162], with ≤ 5 nM; and `COC(=O)N[C@H](C(=O)N1CCC[C@H]1c1nc2cc(-c3ccc(-c4ccc5[nH]c([C@@H]6CCCN6C(=O)[C@@H](NC(=O)OC)C(C)C)nc5c4)c4ncccc34)ccc2[nH]1)C(C)C` [Compound 163], with ≤ 5 nM; and `COC(=O)N[C@H](C(=O)N1CCC[C@H]1c1nc2cc(-c3ccc(-c4ccc5nc([C@@H]6CCCN6C(=O)[C@@H](NC(=O)OC)C(C)C)[nH]c5c4)cc3NC(C)=O)ccc2[nH]1)C(C)C` [Compound 164], with ≤ 5 nM.
Regarding `COC(=O)N[C@H](C(=O)N1C[C@H](F)C[C@H]1c1nc2cc(-c3ccc(-c4ccc5nc([C@@H]6C[C@@H](F)CN6C(=O)[C@@H](NC(=O)OC)C(C)C)[nH]c5c4)cc3)ccc2[nH]1)C(C)C` [Compound 165], the EC50 was ≤ 5 nM.
Then `COC(=O)N[C@H](C(=O)N1CCC[C@H]1c1nc2cc(-c3ccc(-c4ccc5nc([C@@H]6CCCN6C(=O)[C@@H](NC(=O)OC)C(C)C)[nH]c5c4)c(OC)c3OC)ccc2[nH]1)C(C)C` [Compound 166], with ≤ 5 nM; and `COC(=O)N[C@H](C(=O)N1CCC[C@H]1c1nc2cc(-c3cc4sc(-c5ccc6nc([C@@H]7CCCN7C(=O)[C@@H](NC(=O)OC)C(C)C)[nH]c6c5)cc4s3)ccc2[nH]1)C(C)C` [Compound 167], with ≤ 5 nM; and `COC(=O)N[C@H](C(=O)N1CCOC[C@H]1c1nc2cc(-c3ccc(-c4ccc5nc([C@@H]6COCCN6C(=O)[C@@H](NC(=O)OC)C(C)C)[nH]c5c4)cc3)ccc2[nH]1)C(C)C` [Compound 168], with ≤ 5 nM.
As to `COC(=O)N[C@H](C(=O)N1C[C@@H](F)C[C@H]1c1nc2cc(-c3ccc(-c4ccc5nc([C@@H]6C[C@H](F)CN6C(=O)[C@@H](NC(=O)OC)C(C)C)[nH]c5c4)cc3)ccc2[nH]1)C(C)C` [Compound 169], the EC50 was ≤ 5 nM.
Then `COC(=O)N[C@H](C(=O)N1CCC[C@H]1c1nc2cc(-c3ccc(-c4ccc5[nH]c([C@@H]6CCCN6C(=O)[C@@H](NC(=O)OC)[C@@H](C)OC)nc5c4)cc3)ccc2[nH]1)[C@@H](C)OC` [Compound 170], with ≤ 5 nM; and `COC(=O)N[C@@H](C(=O)N1CCC[C@H]1c1nc2cc(-c3ccc(-c4ccc5[nH]c([C@@H]6CCCN6C(=O)[C@H](NC(=O)OC)C(C)C)nc5c4)cc3)ccc2[nH]1)C(C)C` [Compound 171], with 5 to 5000 nM; and `COC(=O)N[C@H](C(=O)N1CCC[C@H]1c1nc2cc(-c3ccc(-c4ccc5nc([C@@H]6CCCN6C(=O)[C@@H](NC(=O)OC)C(C)C)[nH]c5c4)c4c3OCCO4)ccc2[nH]1)C(C)C` [Compound 172], with ≤ 5 nM.
As for `COC(=O)N[C@H](C(=O)N1CCC[C@H]1c1nc2cc(-c3ccc(-c4ccc5nc([C@@H]6CCCN6C(=O)[C@@H](NC(=O)OC)C(C)C)[nH]c5c4)c4ocnc34)ccc2[nH]1)C(C)C` [Compound 173], the EC50 was ≤ 5 nM.
